For 1 compound, half-life results are on record in patent publication US10913732B2, “Furoxans as therapies for neurodegenerative disorders” (The University of Toledo, priority 2016, dated 2021).

This data set can be described thus: Rat liver microsome metabolic stability. Format: in vitro ADME. The following applies: rat liver microsomes, read-out: RLM t1/2. The protocol: 7.4) at 37° C. (FIG. 5A). Incubations were placed in a temperature controlled HPLC autosampler and aliquots are analyzed by HPLC-UVvis periodically for 2-24 hr. Percent furoxan remaining was determined based on the area under the curve (AUC) of the HPLC UV-absorbance spectrum. Similarly, rat liver microsomes were incubated with 31b in the presence or absence of NADPH to determine microsomal stability (FIG. 5B). Warfarin and verapamil were used as slow and fast metabolizing controls.
Metabolic stability is an important parameter for determining the drug-like properties of a molecule, especially when trying to develop attenuated furoxans which require reaction with thiols to produce an effect. The metabolism of 31b in the presence of rat liver microsomes (RLM) was studied. Verapamil and warfarin were used as well-characterized controls. […]
HPLC method: solvents, H2O [0.1% FA]—solvent A; MeOH [0.1% FA]—solvent B; flow rate 1.0 mL/min. […] As described above, thiol reactivity was analyzed via incubations containing the furoxan (250 μM) in the presence or absence of excess (5 mM) cysteine (or N-acetylcysteine [NAc]) in PBS (50 mM, pH 7.4) at 37° C. Incubations were placed in a temperature controlled HPLC autosampler and aliquots were analyzed by HPLC-UVvis periodically for 2-24 hr. Percent furoxan remaining was determined based on the area under the curve (AUC) of the HPLC UV-absorbance spectrum. […]

Turning to `CC1CCN(Cc2no[n+]([O-])c2-c2ccc(F)cc2)CC1` [31b], the half-life is approximately 11 min.
